Results: patent US6949516B2, “Dipeptide apoptosis inhibitors and the use thereof” (Cytovia, Inc., priority 1997, dated 2005)

Tests used:
CPP32 = biological target: T1, CPP32 (Homo sapiens, UniProt P42574); assay: Fluorometric enzyme assay, CPP32; assay type: biochemical; details: recombinant CPP32, 37° C., 30 minutes
T1 construct: made in house; host or cells: Sf9 insect cells, baculovirus vector
T1 sequence (P42574 29-175 limits assumed): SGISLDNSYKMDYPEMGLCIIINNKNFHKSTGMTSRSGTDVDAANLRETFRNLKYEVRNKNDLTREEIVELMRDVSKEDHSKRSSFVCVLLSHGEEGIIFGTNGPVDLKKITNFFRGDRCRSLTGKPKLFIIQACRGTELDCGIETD
Method: (§1) The activities of Cbz-Val-Asp(OMe)-CH2F and Cbz-Val-Asp-CH2F (free acid) as inhibitors of CPP32, ICE and cathepsin B were measured in a fluorometric enzyme assay. Recombinant CPP32 protein and ICE protein were prepared by expressing DNA clones encoding these enzymes in an insect host cell (sf9 cells) using baculovirus as the vector. See, Webb, N.R. et al., “Expression of proteins using recombinant Baculovirus,” Techniques 2:173-188 (1990). Preparations of native cathepsin were acquired from a commercial source. Enzyme activity was measured using synthetic peptide substrates attached to a fluorogenic leaving group. Cleavage of the synthetic substrate by the enzyme results in a fluorescent signal which is read in a spectrofluorometer or in a fluorometric microtiter plate reader.
CPP32 activity was measured using the following buffer conditions: 100 mM HEPES pH 7.5, with 10% sucrose, 1% CHAPS, 5 mM glutathione, and 5 μM peptide substrate. The peptide substrate consisted of an oligomer with the sequence Asp-Glu-Val-Asp (SEQ ID NO:1) with the fluorogenic compound aminomethylcoumarin conjugated to the C-terminus. The assay for enzyme activity was typically carried out at 37° C. for 30 minutes.

Thrombin = Thrombin (Homo sapiens, UniProt P00734); assay: Protease inhibition, thrombin; assay type: biochemical
Text: (§2) Table I lists the IC50 of Cbz-Val-Asp(OMe)-CH2F and Cbz-Val-Asp-CH2F (free acid) for CPP32 and other proteases.

Factor Xa = assay: Protease inhibition, Factor Xa; assay type: biochemical
Text: as §2

ICE = biological target: T2, ICE (Homo sapiens, UniProt P29466); assay: Fluorometric enzyme assay, ICE; assay type: biochemical; details: recombinant ICE
T2 construct: made in house; host or cells: Sf9 insect cells, baculovirus vector
T2 sequence (P29466 120-297 limits assumed): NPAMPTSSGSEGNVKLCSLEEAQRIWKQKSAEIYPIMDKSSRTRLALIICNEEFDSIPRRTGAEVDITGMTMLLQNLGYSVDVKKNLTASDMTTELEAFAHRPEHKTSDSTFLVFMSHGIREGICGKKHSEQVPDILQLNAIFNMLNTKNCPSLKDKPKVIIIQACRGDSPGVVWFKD
Method: as §1

Cathepsin B = biological target: T3, Cathepsin B (Homo sapiens, UniProt P07858); assay: Fluorometric enzyme assay, cathepsin B; assay type: biochemical; details: native cathepsin, commercial source
T3 construct: Preparations of native cathepsin were acquired from a commercial source; purchased
Method: as §1

Caspase-3 = biological target: T4, Caspase-3 (Homo sapiens, UniProt P42574); assay: Recombinant caspase assay with Ac-DEVD-AMC, caspase-3; assay type: biochemical; details: 10 μM Ac-DEVD-AMC, 30 minutes at 37° C.
T4 sequence (P42574 29-175 limits assumed): T1 sequence (P42574 29-175 limits assumed)
Method: The inhibitory activity of Cbz-Val-Asp-CH2F in recombinant caspase 3, 6, 7 and 8 obtained from PharMington (a Becton division company, San Diego, Calif.) were measured using Ac-DEVD-AMC (SEQ ID NO:1). The amount of each enzyme per assay was as following: 1 ng caspase3, 15 ng caspase6, 2 ng caspase7 and 60 ng caspase8. The enzyme reaction was conducted in 96-well plate using a caspase buffer (20 mM PIPES, 100 mM NaCl, 10 mM DTT, 1 mM EDTA, 0.1% CHAPS and 10% sucrose, pH 7.2) and the reaction was initiated by adding 10 μM Ac-DEVD-AMC (SEQ ID NO:1) (purchased from Quality Controlled Biochemicals, Inc. Hopkinton, Mass.). Twelve concentrations of Cbz-Val-Asp-CH2F ranged from 30 μM to […] were tested after incubation of the compound with recombinant caspases for 30 minutes at 37° C. […] The data was analyzed using GraphPrism software.

[1] = test system: DNA laddering in Jurkat cells; assay: DNA laddering in antiFas-treated Jurkat cells; assay type: cell-based, human; details: antiFas 100 ng/mL for 4 hours
Text: In the later stages of apoptosis, cells begin to literally fall apart as pieces of the cytoplasm are shed (through blebbing) and the nucleus is disassembled. One of the hallmarks of nuclear disassembly is the cleavage of genomic DNA into nucleosome-sized fragments (termed “DNA laddering”). DNA laddering, like other late stage apoptotic events, is considered to be irreversible, so it is important to determine whether an anti-apoptotic drug can prevent its occurrence.
The ability of Z-VD-fmk to block DNA laddering was tested using antiFas-treated Jurkat cells. Jurkat cells were plated in 60 mm dishes at a density of 5×10^6 cells and pre-incubated with varying concentrations of Z-VD-fmk. They were then challenged with antiFas at 100 ng/mL for 4 hours, harvested, and pelleted and washed with PBS twice. Genomic DNA was isolated using the method of Eldadah et al. (1996). Briefly, the cells were lysed in 2 mL of 7M guanidine HCl and mixed with 1 mL of Wizard miniprep DNA purification resin (Promega). The resin/DNA complex was washed twice with buffer and the DNA was eluted in TE. 1 to 2 μg of this DNA sample was electrophoresed on a 1% agarose/TBE gel and the gel was stained with ethidium bromide.
Vehicle treated cells which were challenged with antiFas show a characteristic laddering pattern of DNA extending down to about 300 bp. […]

Row | SMILES | IC50 (CPP32) [nM] | IC50 (Thrombin) [nM] | IC50 (Factor Xa) [nM] | IC50 (ICE) [nM] | IC50 (Cathepsin B) [nM] | IC50 (Caspase-3) [nM] | dose inhibiting DNA ladder formation [1] [nM]
1 | COC(=O)CC(NC(=O)C(NC(=O)OCc1ccccc1)C(C)C)C(=O)CF (stereo not drawn) [Cbz-Val-Asp(OMe)-CH2F, Z-Val-Asp-fmk Methyl Ester] | 1100 | > 100000 | > 100000 | 900 | 300 | – | –
2 | CC(C)[C@H](NC(=O)OCc1ccccc1)C(=O)NC(CC(=O)O)C(=O)CF (stereo partly drawn) [Cbz-Val-Asp-CH2F, Z-Val-Asp-fmk] | 43 | > 100000 | > 100000 | 20 | > 10000 | 19.8 | ≤ 50
